Measured values from US20050075371A1, “Methods and compositions for the oral administration of prodrugs of proton pump inhibitors” (ALLERGAN, INC., priority 2003, published 2005).
≈ marks a conversion by molar mass, not a printed value. Where two headings read alike, the source gives them in different places.

What was measured:
Caco-2 cells = experiment: Membrane permeability (Papp) across Caco-2 cell monolayer, apical to basolateral; format: in vitro ADME; conditions: Caco-2, apical to basolateral, 10 μM, 37° C.
Protocol: (§1) Determination of membrane permeability in all examples described herein was accomplished by the following procedure. This procedure is also used to determine whether a given prodrug falls within the scope of those claims given herein which relate to membrane permeability.
(§2) Caco-2 cells were seeded on Costar™ 12 mm diameter, 0.4 μm pore size transwell filters, and were cultured at 37° C., 5% CO2 in a humidified tissue culture chamber.
(§3) DMEM was equilibrated as a transport buffer in 37° C. water bath an hour before experiment. The cells were then equilibrated in transport buffer for 1 hr at 37° C.
(§4) Dosing solution (10 μM) was prepared by adding a 20 μL aliquot of a 10 mM stock solution of the prodrug to 20 mL of transport buffer.
(§5) Transport across Caco-2 cell monolayer was measured at 37° C., in the apical to basolateral direction (n=3).
(§6) Transport buffer was removed from both apical and basolateral compartment of filters. Dosing solution (0.2 mL) was added to the apical compartment of the cell layers on transwell filters, and 0.8 ml fresh pre-warmed transport buffer was added to basolateral compartment. Timing was started for transport, and at 5, 20, and 60 min after transport started, sample fluid (400 μL) was collected from the basolateral compartment. Fresh transport buffer (400 μL) was added back to the basolateral compartment, and the fluid was thoroughly mixed.
(§7) Transport samples, dosing solution, and standards(100 μL) each were mixed with 100 μl of a 500 ng/ml internal standard (Lansoprazole-D) for LC-MS/MS analysis, and part of each sample (100 μL) was vortexed and transferred into glass LC-MS/MS vials for analysis.
(§8) The apparent permeability coefficient (Papp, cm/sec), otherwise known herein as the membrane permeability, is determined from the following relationship: Papp=J/(ACo) where J (pmol/min) is the transport rate, meaning the rate of prodrug movement through the cell layer, A (cm^2) is the filter surface area, and Co (μM) is the initial dosing concentration.
(§9) The transport rate J, is calculated as the slope of the linear regression fit for the transport amount over time data using Microsoft Excel® 97 SR-2 (Microsoft Corp. Redmond, Wash.).
(§10) Lucifer yellow (LY) was used as a paracellular permeability reference standard to determine integrity of cell layers used in the experiments. LY transport in the apical to basolateral direction was carried out in the same manner as described above. Fluorescence level in basolateral fluid sampled at 5, 20, and 60 min post dose was determined using Fluostar Galaxy (BMG Labtechnologies, Durham, N.C.) at excitation/emission wavelengths of 485/520 nm. A standard curve covering the range from 0.002 to 0.5 mg/mL is constructed to quantify the amount of LY in the transport sample to calculate permeability coefficient (Papp).

[1] = Systemic half-life after oral or intravenous administration in rats; format: in vivo, rats (Sprague-Dawley); conditions: for Systemic omeprazole half-life / half-life: rats; for half-life: Sprague-Dawley, rat, blood
Protocol: (§11) Blood concentrations of the compounds omeprazole, lansoprazole, pantoprazole, rabeprazole, and test compounds were quantified using an achiral liquid chromatography tandem mass spectrometry method (LC-MS/MS). Systemic pharmacokinetic parameters were determined for omeprazole or lansoprazole using non-compartmental analysis in Watson® version 6.3, available from InnaPhase Corporation, Philadelphia, Pa.

[2] = Systemic half-life after oral or intravenous administration in dogs; format: in vivo, dogs (beagle); conditions: for half-life: beagle, dog, blood
Protocol: as §11

[3] = Hygroscopicity on storage; format: physicochemical; conditions: 14 days of storage at 25° C. at 75% relative humidity
Protocol: The physicochemical properties of compound 1 were analyzed.

[4] = Solubility profile in buffered aqueous solutions; format: physicochemical; conditions: 25° C.
From the text: While not intending to be bound in any way by theory, it is believed that this improvement in solubility is due to the deprotonation of a sufficient quantity of the acid.

[5] = Stability profile in buffered aqueous solutions; format: physicochemical; conditions: 25° C.
[6] = Degradation in simulated gastric fluid; format: physicochemical; conditions: simulated gastric fluid (USP, pepsin); pH 1.2
Protocol: Simulated gastric fluid was prepared as specified by USP (http://www.uspnf.com/uspnf/usp26nf21/default.htm, Reagents>Solutions>Test Solutions>Gastric Fluid, Simulated). To make 200 mL of simulated gastric fluid, 0.4 g of sodium chloride and 0.64 g of purified pepsin, with an activity of 800 to 2500 units per mg of protein, was dissolved in 1.4 mL of hydrochloric acid and sufficient water. The solution was adjusted to the appropriate pH with hydrochloric acid.
The pH dependence of the half-life of compound 1 in the simulated gastric fluid is depicted in Table 4A.

[7] = Systemic omeprazole after enteric-coated or regular capsules in dogs; format: in vivo; conditions: Dog, oral capsule of sodium salt of compound 1
Protocol: (§12) The bioavailability of compound 1 in enterically coated and non enterically coated dosage forms was investigated for dogs and monkeys. Regular and enteric-coated size 3 HPMC capsules (Capsugel, Morris Plains, N.J.) containing compound 1 were prepared by placing the appropriate amount of the sodium salt of compound 1 in the capsule. The enteric-coating material was prepared by dissolving cellulose acetate phthalate in a mixture of isopropyl alcohol and dichloromethane. The entire capsule was dipped in the enteric-coating material, and the isopropyl alcohol and dichloromethane were allowed to evaporate. The dosage forms were administered to the animals and the concentration of the omeprazole in the blood was determined as described in the oral bioavailability determination of Example 2. The maximum concentration of omeprazole (Cmax) and the total area under the curve (AUC) for the animals receiving both enterically coated and non-enterically coated oral dosage forms is presented in Table 4B. In both dogs and monkeys, both the Cmax and the AUC are higher for the non-enterically coated dosage form.

[8] = Systemic omeprazole after enteric-coated or regular capsules in monkeys; format: in vivo; conditions: Monkey, oral capsule of sodium salt of compound 1
Protocol: as §12

[9] = Oral administration of solid dosage form to a person suffering from heartburn; format: in vivo; conditions: 40 mg compound 1, 50% as sodium salt, oral daily
Protocol: A solid dosage form comprising 40 mg of compound 1, having 50% of the prodrug in the form of the sodium salt, is orally administered daily to a person suffering from heartburn. Relief of pain begins to occur within about 1 day, and continues as long as the person takes the dosage form.

[10] = Membrane permeability (Papp) across Caco-2 cell monolayer, apical to basolateral; format: in vitro ADME; conditions: human, Caco-2, apical to basolateral, 37° C.
Protocol: as §1, §2, §3, §4, §5, §6, §7, §8, §9, §10

[11] = somewhat buffer dependent, Kromer et al., Ekpe et al., cited from earlier work
[12] = intravenous, equivalent omeprazole dose 1 mg/kg
[13] = oral, equivalent omeprazole dose 10 mg/kg
[14] = pH 3, Citric Acid (0.1 M)/Na2HPO4 (0.2 M)
[15] = pH 5, Citric Acid (0.1 M)/Na2HPO4 (0.2 M)
[16] = pH 7, sodium phosphate (0.1-0.2 M)
[17] = pH 9, sodium phosphate (0.1-0.2 M)
[18] = pH 7.4, sodium phosphate (0.1-0.2 M)
[19] = pH 10, sodium phosphate (0.1-0.2 M)
[20] = oral solution, systemic half-life of the proton pump inhibitor, unit inferred, read-out: Rat T1/2 PPI (converted)
[21] = po, Table 2D, read-out: t1/2 (systemic half-life in dogs after oral administration) (converted)
[22] = po, oral solution, systemic half-life of the proton pump inhibitor, unit inferred, read-out: Dog T1/2 PPI (converted)

COc1ccc2c(c1)nc([S+]([O-])Cc1ncc(C)c(OC)c1C)n2S(=O)(=O)c1ccc(OCC(=O)O)cc1 (centres unmarked) [Compound 1]
Permeability (Caco-2 cells): 1.2e-07 cm/s | Prodrug in the bloodstream 5 minutes after intravenous administration ([1]; rats (Table 2A study), intravenous, 5 minutes): not detected | Systemic omeprazole half-life [1, 12]: 10.8 min | Systemic omeprazole half-life [1, 13]: 102 min | Systemic omeprazole half-life [2, 12]: 1.0 h | Dog T1/2 PPI ([2]; oral solution, systemic half-life of the proton pump inhibitor, unit inferred): 2.08 h | t1/2 (systemic half-life in dogs after oral administration) ([2]; oral, Table 2D): 2.4 h | Systemic omeprazole half-life [2, 13]: 2.4 h | weight gain [3]: 9% | Solubility ([4]; pH 1, 0.1 M HCl): 1.8 mg/mL (≈ 3.22 mM) | Solubility [4, 14]: 0.4 mg/mL (≈ 0.715 mM) | Solubility [4, 15]: >50 mg/mL | Solubility [4, 16]: >50 mg/mL | Solubility [4, 17]: >50 mg/mL | Degradation Rate Constant (k) ([5]; pH 1, 0.1 M HCl): 0.194 h⁻¹ | Half-life (t1/2) ([5]; pH 1, 0.1 M HCl): 3.6 h | Shelf life (t90%) ([5]; pH 1, 0.1 M HCl): 0.5 h | Degradation Rate Constant (k) [5, 14]: 0.009 h⁻¹ | Half-life (t1/2) [5, 14]: 78.0 h | Shelf life (t90%) [5, 14]: 11.9 h | Degradation Rate Constant (k) [5, 15]: 0.008 h⁻¹ | Half-life (t1/2) [5, 15]: 89.2 h | Shelf life (t90%) [5, 15]: 13.6 h | Degradation Rate Constant (k) [5, 16]: 0.002 h⁻¹ | Half-life (t1/2) [5, 16]: 286.8 h | Shelf life (t90%) [5, 16]: 43.6 h | Degradation Rate Constant (k) [5, 18]: 0.002 h⁻¹ | Half-life (t1/2) [5, 18]: 291.2 h | Shelf life (t90%) [5, 18]: 44.3 h | Degradation Rate Constant (k) [5, 17]: 0.030 h⁻¹ | Half-life (t1/2) [5, 17]: 23.0 h | Shelf life (t90%) [5, 17]: 3.5 h | Degradation Rate Constant (k) [5, 19]: 0.298 h⁻¹ | Half-life (t1/2) [5, 19]: 2.3 h | Shelf life (t90%) [5, 19]: 0.4 h | Half-life in Simulated Gastric Fluid [6]: 3 h | AUC Omeprazole/Dose ([7]; Enteric Coating): 82.2 ± 18.4 ng·h/mL/mg/kg | Cmax Omeprazole/Dose ([7]; Enteric Coating): 22.5 ± 7.3 ng/mL/mg/kg | AUC Omeprazole/Dose ([7]; Regular Capsule): 91.3 ± 32.9 ng·h/mL/mg/kg | Cmax Omeprazole/Dose ([7]; Regular Capsule): 29.2 ± 11.8 ng/mL/mg/kg | AUC Omeprazole/Dose ([8]; Enteric Coating): 18.9 ± 7.9 ng·h/mL/mg/kg | Cmax Omeprazole/Dose ([8]; Enteric Coating): 6.09 ± 1.04 ng/mL/mg/kg | AUC Omeprazole/Dose ([8]; Regular Capsule): 19.7 ± 8.8 ng·h/mL/mg/kg | Cmax Omeprazole/Dose ([8]; Regular Capsule): 14.0 ± 17.1 ng/mL/mg/kg | Relief of pain begins to occur [9]: ≤ 1 days

Cc1c(OCC(F)(F)F)ccnc1C[S+]([O-])c1nc2ccccc2[nH]1 (centres unmarked) [Lansoprazole, reference compound]
Papp A→B at 60 min, 10 μM [10]: 15 ×10⁻⁶ cm/s | half-life [1, 20]: 30.6 min | half-life [2, 21]: 34.2 min | half-life [2, 22]: 34.4 min

COc1ccc2[nH]c([S+]([O-])Cc3ncc(C)c(OC)c3C)nc2c1 (centres unmarked) [Omeprazole, reference compound]
Papp A→B at 60 min, 10 μM [10]: 13 ×10⁻⁶ cm/s | half-life ([1]; intravenous, equivalent omeprazole dose 1 mg/kg, read-out: Systemic omeprazole half-life (converted)): 9 min | half-life [1, 20]: 18.5 min | half-life ([1]; oral, equivalent omeprazole dose 10 mg/kg, read-out: Systemic omeprazole half-life (converted)): 18.6 min | half-life ([2]; iv, 1 mg/kg, intravenous, equivalent omeprazole dose 1 mg/kg, read-out: Systemic omeprazole half-life (converted)): 36 min | half-life ([2]; po, 10 mg/kg, oral, equivalent omeprazole dose 10 mg/kg, read-out: Systemic omeprazole half-life (converted)): 42 min | half-life [2, 21]: 42 min | half-life [2, 22]: 41.8 min | typical half-life (aqueous stability) ([11]; pH 5): about 1 hour | typical half-life (aqueous stability) ([11]; pH 7): about 40 hours
